Measurements reported in patent US4269855A, “(3-Alkylamino-2-hydroxypropoxy)-furan-2-carboxylic acid anilides and physiologically tolerated acid addition salts thereof and medicaments containing them” (A. Nattermann & Cie. GmbH, priority 1979, dated 1981).
pIC50: −log10 of the molar value. Where a name gives a salt, the structure may show the parent alone.

Experiments:
in vivo = experiment: in vivo
Protocol: The acute toxicity was determined on NMRI mice by intravenous or oral administration of increasing doses of the compounds of the invention. The death rates were determined within the 7-day follow-up period and the average lethal dose was determined by probit analysis.

β-receptor [1] = target: β-receptor (Canis lupus familiaris, UniProt P79148); experiment: Inhibition of isoprenalin-induced increase in contractile force (dp/dtmax), anaesthetised dogs; type: in vivo, mongrel dogs; conditions: for ED50: dog, anaesthetised dogs, isoprenalin 0.5 μg/kg i.v., determined graphically
β-receptor (Canis lupus familiaris, UniProt P79148), sequence (P79148 whole entry): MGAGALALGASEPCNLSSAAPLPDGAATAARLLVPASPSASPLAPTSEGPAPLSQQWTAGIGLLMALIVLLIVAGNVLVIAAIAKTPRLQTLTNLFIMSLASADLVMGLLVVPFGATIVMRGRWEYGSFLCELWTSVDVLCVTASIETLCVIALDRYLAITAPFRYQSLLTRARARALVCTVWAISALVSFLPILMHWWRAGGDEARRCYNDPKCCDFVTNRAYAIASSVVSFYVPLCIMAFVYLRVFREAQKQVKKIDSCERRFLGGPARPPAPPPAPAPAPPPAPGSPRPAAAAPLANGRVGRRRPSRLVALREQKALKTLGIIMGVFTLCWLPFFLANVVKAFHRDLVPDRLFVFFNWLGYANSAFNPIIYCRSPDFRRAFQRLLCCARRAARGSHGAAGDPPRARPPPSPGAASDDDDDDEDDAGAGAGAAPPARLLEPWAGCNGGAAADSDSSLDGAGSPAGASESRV
Protocol: (§1) The ventricular pressure of mongrel dogs, anesthetized with chloralose-urethane, was determined, together with other circulation parameters, with the aid of a Millar tip catheter (type PC 350 A, Millar Instruments, Houston, Tex.) introduced into the left heart ventricle, and the maximum rate of pressure increase (dp/dtmax) was determined by differentiation (HSE operational amplifier, Hugstetten). This rate serves as a measure of the contractile force.

β-receptor [2] = target: T1, β-receptor (Cavia porcellus, UniProt H0W3H1); experiment: Inhibition of isoprenalin-induced increase in contractile force, isolated guinea pig left auricle; set-up: species or system guinea pig (Pirbright White); conditions: Bath, isoprenalin 3.2×10^-8 molar, probit analysis, read-out: ED50, inhibition of increase in contractile force induced by isoprenaline
T1 sequence (H0W3H1 1-470): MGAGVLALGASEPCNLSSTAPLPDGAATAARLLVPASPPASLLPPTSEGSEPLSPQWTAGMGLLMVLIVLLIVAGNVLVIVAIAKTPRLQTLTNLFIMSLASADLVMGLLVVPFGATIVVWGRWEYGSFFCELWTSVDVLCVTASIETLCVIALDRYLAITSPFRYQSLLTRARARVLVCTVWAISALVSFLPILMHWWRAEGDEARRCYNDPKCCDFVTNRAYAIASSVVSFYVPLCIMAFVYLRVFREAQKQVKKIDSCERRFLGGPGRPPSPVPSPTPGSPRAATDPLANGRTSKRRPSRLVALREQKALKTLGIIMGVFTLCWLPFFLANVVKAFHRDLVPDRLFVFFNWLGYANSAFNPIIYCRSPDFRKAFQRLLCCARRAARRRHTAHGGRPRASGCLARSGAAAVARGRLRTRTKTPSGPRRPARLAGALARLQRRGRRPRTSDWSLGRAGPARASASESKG

β-receptor [3] = experiment: β-receptor blocking action, isolated organs and whole animal (overall statement); conditions: in words
Protocol: as §1

β-receptor [4] = target: T1, β-receptor; experiment: Inhibition of isoprenalin-induced increase in pulse rate, isolated guinea pig right auricle; set-up: species or system guinea pig (Pirbright White); conditions: Bath, isoprenalin 5.8×10^-9 molar, probit analysis, read-out: ED50, inhibition of increase in pulse rate induced by isoprenalin

In the case of `CC(C)(C)NCC(O)COc1ccccc1NC(=O)c1ccco1` (centres unmarked) [Example 1, 2'-(2-hydroxy-3-tert.-butylaminopropoxy)-furan-2-carboxylic acid anilide], the selectivity ratio (in vivo; in vivo) was 4560, the toxicity (in vivo; in words) was “very favorable” and the LD50 at 168 h (in vivo; mouse, in vivo, iv) was 55 mg/kg. For the same compound, the LD50 at 168 h (in vivo; mouse, in vivo, po) was 502 mg/kg, the “"therapeutic range" quotient (LD50/ED50), times as high as the compounds already known” value (in vivo; versus propranolol hydrochloride and practolol hydrochloride) was 1.5-3 times and the ED50 (β-receptor [1]; intraduodenal) was 0.11 mg/kg. The ED50 (β-receptor [1]; intravenous) was 0.025 mg/kg, the “action when administered intraduodenally” value (β-receptor [1]; intraduodenal, in words) was “good action” and the pIC50 (β-receptor [2]) was 6.54. For the same compound, the “β-receptor blocking action / pharmacological activity” value (β-receptor [3]) was “strong β-receptor blocking action both on isolated organs and on the whole animal” and the pIC50 (β-receptor [4]) was 7.01.
In the case of `CC(=O)Nc1ccc(OCC(O)CNC(C)C)cc1` (centres unmarked) [Practolol Hydrochloride, reference compound], the selectivity ratio (in vivo; in vivo) was 3190, the “LD50, acute toxicity” value (in vivo; mouse, in vivo, iv, 168 h) was 148 mg/kg and the LD50 at 168 h (in vivo; mouse, in vivo, po) was 2870 mg/kg. It also gave an ED50 (β-receptor [1]; intraduodenal) of 0.9 mg/kg, a pIC50 (β-receptor [2]) of 5.64 and a pIC50 (β-receptor [4]) of 6.15.
